{
  "source": "patent US20260306503A1",
  "about": "“(S)-2-HYDROXY-6-((4-(2-(2-HYDROXYETHYL)NICOTINOYL)MORPHOLIN-3-YL)METHOXY)BENZALDEHYD FOR USE IN THE TREATMENT OF SICKLE CELL DISEASE” (Global Blood Therapeutics, Inc., priority 2023, published 2026)",
  "biological_target": "T1, hemoglobin (Homo sapiens, UniProt P69905)",
  "T1 construct": "whole blood ex vivo",
  "T1 sequence (P69905 whole entry)": "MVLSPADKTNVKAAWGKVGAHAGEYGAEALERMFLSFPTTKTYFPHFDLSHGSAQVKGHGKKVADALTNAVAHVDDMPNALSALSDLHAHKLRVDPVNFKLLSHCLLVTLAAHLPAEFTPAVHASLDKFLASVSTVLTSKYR",
  "T1 sequence (P68871 with tags, fused parts or gaps E7V partner)": "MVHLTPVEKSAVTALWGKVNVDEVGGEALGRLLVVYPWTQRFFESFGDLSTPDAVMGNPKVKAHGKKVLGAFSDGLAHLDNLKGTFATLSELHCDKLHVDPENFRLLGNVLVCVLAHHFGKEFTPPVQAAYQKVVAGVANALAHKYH",
  "test": "Hb occupancy calculated from preliminary PK analysis of whole blood samples",
  "assay_type": "in vivo",
  "conditions": "Patient A, 300 mg QD 14 days then 200 mg QD",
  "description": "In some embodiments, the therapeutically effective amount is determined by measuring the percent of hemoglobin occupied by the compound, i.e., the percent Hb occupancy. The percent Hb occupancy is a measure of target engagement defined as the percentage of hemoglobin bound by a compound (e.g., Compound I) calculated as the molar concentration of the compound (e.g., Compound I) in RBCs divided by the molar concentration of hemoglobin in RBCs (the mean corpuscular hemoglobin concentration calculated from the hematology panel). The values for concentration of a compound (e.g., Compound I) in RBCs is calculated from the concentrations in whole blood and plasma, and the hematocrit.\nIn some embodiments, the percent hemoglobin occupancy may be calculated as described herein. In some embodiments, percent hemoglobin occupancy is the molar ratio of Compound I concentration to the Hb concentration in red blood cells.\nSome newly enrolled participants in Part A will receive a loading dose regimen of 300 mg of Compound I once daily over the first 14 days. Participants will then receive 200 mg once daily maintenance doses through Week 12.\nBased on preliminary pharmacokinetic (PK) analysis of whole blood samples taken from Patient A at day 15 and day 29, Hb occupancy values of 62% and 53%, respectively, were calculated.",
  "data": [
    {"smiles": "O=Cc1c(O)cccc1OC[C@@H]1COCCN1C(=O)c1cccnc1CCO", "note": "[Compound I, (S)-2-hydroxy-6-((4-(2-(2-hydroxyethyl)nicotinoyl)morpholin-3-yl)methoxy)benzaldehyde]", "values": [
      {"measurement": "Hb occupancy", "setting": "day 15, whole blood, 21600 min", "value": 62, "unit": "%"},
      {"measurement": "Hb occupancy", "setting": "day 29, whole blood, 41760 min", "value": 53, "unit": "%"}
    ]}
  ]
}
